# According to patent US8158670B2 (priority 1996, dated 2012):
# Where two headings read alike, the source gives them in different places.
# What was measured:
# [1] = tested on: Vascular smooth muscle (BO54) cells; format: cell-based, baboon; conditions: 5 minute exposure
# [2] = tested on: Vascular smooth muscle (BO54) cells; format: cell-based, baboon; conditions: 5 minute exposure; remark: listed apart in the source
# [3] = tested on: Vascular smooth muscle cells (BO54); assay: Scratch-migration assay; format: cell-based, baboon; set-up: key to Migration Grade in the Cleared Area of the Well / Migration Grade in an Undisturbed Region of the Well: −=no migration; +1=minimal; +2=mild; +3=moderate; +4=marked (maximum density; limit of cell contact inhibition) migration
# Experimental: (§1) Vascular smooth muscle cells (BO54) were derived from explants of baboon aortic smooth muscle, as described in Example 10. The cells were grown in flat bottom, six well tissue culture plates, which hold about 5 ml of medium. The vascular smooth muscle cells were plated at 200,000 cells/well and placed at 37° C. in a humidified 5% CO2 incubator for 18 hours. The wells were then scratched with a sterile portion of a single edge razor blade that was held by clamp or pliers and was brought aseptically into contact with the bottom of the well at a 90° angle. The cells from a small area along the scratch were removed by a sterile cotton tipped applicator while the blade was in contact with the bottom of the well. After incubation, the presence of cells in the “scratched” area is indicative of cell migration across the scratch line.
# Briefly, a stock solution of cytochalasin B (Sigma Chemical Co.) in dimethyl sulfoxide (DMSO) at 1 mg/ml was prepared. Test dilutions of cytochalasin B or control medium were added. Each experiment included two sets of plates:
# A set: Test agent exposure for 1, 3, 6, 8 and 10 days only; and
# B set: Test agent exposure for 1, 3, 6, 8 and 10 days, followed by a seven day recovery time with control medium.
# Both sets of plates were fixed (10% formalin in PBS) and stained (0.02% crystal violet) at the end of the timed exposures. Test concentrations for cytochalasin B were 1, 0.1 and 0.01 μg/ml, and a negative medium control was included. Fresh medium and drug were supplied 3 times per week.
# In this Table, “M” indicates Migration Grade. wherein −=no migration; +1=minimal; +2=mild; +3=moderate; and +4=marked (maximum density; limit of cell contact inhibition) migration of vascular smooth muscle cells into the cleared area adjacent to the scratch. In this Table, “T” denotes a morphological Toxicity Grade, wherein −=no toxicity; +1=minimal; +2=mild; +3=moderate; and +4=marked toxicity. The migration results are expressed as “Grade in the Cleared Area of the Well/Grade in an Undisturbed Region of the Well.” The toxicity values represent a grade for all cells in each well.
# [4] = tested on: vascular smooth muscle cells of balloon-traumatized arteries; format: in vivo, pig; conditions: relative to a PBS control
# [5] = tested on: vascular smooth muscle cells
# [6] = tested on: Vascular smooth muscle cells (BO54); assay: Scratch-migration assay; format: cell-based, baboon; set-up: key: −=no toxicity; +1=minimal; +2=mild; +3=moderate; +4=marked toxicity; conditions: Continuous Exposure, 1.0 μg/mL
# Experimental: as §1
# Briefly, a stock solution of cytochalasin B (Sigma Chemical Co.) in dimethyl sulfoxide (DMSO) at 1 mg/ml was prepared. […]
# In this Table, “M” indicates Migration Grade. wherein −=no migration; +1=minimal; +2=mild; +3=moderate; and +4=marked (maximum density; limit of cell contact inhibition) migration of vascular smooth muscle cells into the cleared area adjacent to the scratch. […] The migration results are expressed as “Grade in the Cleared Area of the Well/Grade in an Undisturbed Region of the Well.” The toxicity values represent a grade for all cells in each well.
# [7] = Day 1, Continuous Exposure, 0.01 μg/mL
# [8] = Day 1, Continuous Exposure, 0.1 μg/mL
# [9] = Day 1, Continuous Exposure, 1.0 μg/mL
# [10] = Day 1 exposure, 7-day Recovery Post Exposure, 0.01 μg/mL
# [11] = Day 1 exposure, 7-day Recovery Post Exposure, 0.1 μg/mL
# [12] = Day 1 exposure, 7-day Recovery Post Exposure, 1.0 μg/mL
# [13] = Day 3, Continuous Exposure, 0.01 μg/mL
# [14] = Day 3, Continuous Exposure, 0.1 μg/mL
# [15] = Day 3, Continuous Exposure, 1.0 μg/mL
# [16] = Day 3 exposure, 7-day Recovery Post Exposure, 0.01 μg/mL
# [17] = Day 3 exposure, 7-day Recovery Post Exposure, 0.1 μg/mL
# [18] = Day 3 exposure, 7-day Recovery Post Exposure, 1.0 μg/mL
# [19] = Day 6, Continuous Exposure, 0.01 μg/mL
# [20] = Day 6, Continuous Exposure, 0.1 μg/mL
# [21] = Day 6, Continuous Exposure, 1.0 μg/mL
# [22] = Day 6 exposure, 7-day Recovery Post Exposure, 0.01 μg/mL
# [23] = Day 6 exposure, 7-day Recovery Post Exposure, 0.1 μg/mL
# [24] = Day 6 exposure, 7-day Recovery Post Exposure, 1.0 μg/mL
# [25] = Day 8, Continuous Exposure, 0.01 μg/mL
# [26] = Day 8, Continuous Exposure, 0.1 μg/mL
# [27] = Day 8, Continuous Exposure, 1.0 μg/mL
# [28] = Day 8 exposure, 7-day Recovery Post Exposure, 0.01 μg/mL
# [29] = Day 8 exposure, 7-day Recovery Post Exposure, 0.1 μg/mL
# [30] = Day 8 exposure, 7-day Recovery Post Exposure, 1.0 μg/mL
# [31] = Day 10, Continuous Exposure, 0.01 μg/mL
# [32] = Day 10, Continuous Exposure, 0.1 μg/mL
# [33] = Day 10, Continuous Exposure, 1.0 μg/mL
# [34] = Day 10 exposure, 7-day Recovery Post Exposure, 0.01 μg/mL
# [35] = Day 10 exposure, 7-day Recovery Post Exposure, 0.1 μg/mL
# [36] = Day 10 exposure, 7-day Recovery Post Exposure, 1.0 μg/mL
compound,measurement,setting,value
C=C1[C@@H](C)[C@H]2[C@H](Cc3ccccc3)NC(=O)[C@]23OC(=O)/C=C/[C@H](O)CCC[C@@H](C)C/C=C/[C@H]3[C@@H]1O [cytochalasin B],minimum effective dose (MED),[1],10 µg/mL
same,minimum effective dose (MED),[2],10 µg/mL
same,ability to migrate following removal of the therapeutic agent,"[3]; 0.1 μg/ml, even after 10 days of continuous exposure",+3 to +4
same,Migration Grade in an Undisturbed Region of the Well,[3]; [7],+3
same,Migration Grade in the Cleared Area of the Well,[3]; [7],+1
same,Migration Grade in an Undisturbed Region of the Well,[3]; [8],+3
same,Migration Grade in the Cleared Area of the Well,[3]; [8],+1
same,Migration Grade in an Undisturbed Region of the Well,[3]; [9],+2
same,Migration Grade in the Cleared Area of the Well,[3]; [9],−
same,Migration Grade in an Undisturbed Region of the Well,[3]; [10],−4
same,Migration Grade in the Cleared Area of the Well,[3]; [10],+3
same,Migration Grade in an Undisturbed Region of the Well,[3]; [11],+4
same,Migration Grade in the Cleared Area of the Well,[3]; [11],+3
same,Migration Grade in an Undisturbed Region of the Well,[3]; [12],+3
same,Migration Grade in the Cleared Area of the Well,[3]; [12],+2
same,Migration Grade in an Undisturbed Region of the Well,[3]; [13],+4
same,Migration Grade in the Cleared Area of the Well,[3]; [13],+3
same,Migration Grade in an Undisturbed Region of the Well,[3]; [14],+4
same,Migration Grade in the Cleared Area of the Well,[3]; [14],+1
same,Migration Grade in an Undisturbed Region of the Well,[3]; [15],+2
same,Migration Grade in the Cleared Area of the Well,[3]; [15],−
same,Migration Grade in an Undisturbed Region of the Well,[3]; [16],−4
same,Migration Grade in the Cleared Area of the Well,[3]; [16],+3
same,Migration Grade in an Undisturbed Region of the Well,[3]; [17],+4
same,Migration Grade in the Cleared Area of the Well,[3]; [17],+3
same,Migration Grade in an Undisturbed Region of the Well,[3]; [18],+3
same,Migration Grade in the Cleared Area of the Well,[3]; [18],+2
same,Migration Grade in an Undisturbed Region of the Well,[3]; [19],+4
same,Migration Grade in the Cleared Area of the Well,[3]; [19],+3
same,Migration Grade in an Undisturbed Region of the Well,[3]; [20],+4
same,Migration Grade in the Cleared Area of the Well,[3]; [20],+2
same,Migration Grade in an Undisturbed Region of the Well,[3]; [21],+2
same,Migration Grade in the Cleared Area of the Well,[3]; [21],−
same,Migration Grade in an Undisturbed Region of the Well,[3]; [22],+4/+4
same,Migration Grade in the Cleared Area of the Well,[3]; [22],+4/+4
same,Migration Grade in an Undisturbed Region of the Well,[3]; [23],+4
same,Migration Grade in the Cleared Area of the Well,[3]; [23],+3
same,Migration Grade in an Undisturbed Region of the Well,[3]; [24],+3
same,Migration Grade in the Cleared Area of the Well,[3]; [24],+2
same,Migration Grade in an Undisturbed Region of the Well,[3]; [25],+4
same,Migration Grade in the Cleared Area of the Well,[3]; [25],+3
same,Migration Grade in an Undisturbed Region of the Well,[3]; [26],+4
same,Migration Grade in the Cleared Area of the Well,[3]; [26],+2
same,Migration Grade in an Undisturbed Region of the Well,[3]; [27],+2
same,Migration Grade in the Cleared Area of the Well,[3]; [27],−
same,Migration Grade in an Undisturbed Region of the Well,[3]; [28],+4/+4
same,Migration Grade in the Cleared Area of the Well,[3]; [28],+4/+4
same,Migration Grade in an Undisturbed Region of the Well,[3]; [29],+4
same,Migration Grade in the Cleared Area of the Well,[3]; [29],+3
same,Migration Grade in an Undisturbed Region of the Well,[3]; [30],+3
same,Migration Grade in the Cleared Area of the Well,[3]; [30],+2
same,Migration Grade in an Undisturbed Region of the Well,[3]; [31],+4
same,Migration Grade in the Cleared Area of the Well,[3]; [31],+3
same,Migration Grade in an Undisturbed Region of the Well,[3]; [32],+4
same,Migration Grade in the Cleared Area of the Well,[3]; [32],+2
same,Migration Grade in an Undisturbed Region of the Well,[3]; [33],+2
same,Migration Grade in the Cleared Area of the Well,[3]; [33],−
same,Migration Grade in an Undisturbed Region of the Well,[3]; [34],+4/+4
same,Migration Grade in the Cleared Area of the Well,[3]; [34],+4/+4
same,Migration Grade in an Undisturbed Region of the Well,[3]; [35],+4/+4
same,Migration Grade in the Cleared Area of the Well,[3]; [35],+4/+4
same,Migration Grade in an Undisturbed Region of the Well,[3]; [36],+3
same,Migration Grade in the Cleared Area of the Well,[3]; [36],+2
same,migration into the cleared area adjacent to the scratch,[3]; dose of 0.1 μg/ml,+1 to +2
same,time to resume migration after cells clear the agent,[3]; in vitro data,≤ 24 h
same,BRDU uptake (cell proliferation),[4],"inhibited BRDU uptake (i.e., cell proliferation) without killing the vascular smooth muscle cells"
same,morphological cytotoxicity grade,"[5]; 5 min + 24 hrs, 0.1 ug",0
same,morphological cytotoxicity grade,"[5]; 5 min + 24 hrs, 1 ug",0.5
same,morphological cytotoxicity grade,"[5]; 5 min + 24 hrs, 10 ug",4
same,morphological cytotoxicity grade,"[5]; 5 min + 48 hrs, 0.1 ug",0
same,morphological cytotoxicity grade,"[5]; 5 min + 48 hrs, 1 ug",1
same,morphological cytotoxicity grade,"[5]; 5 min + 48 hrs, 10 ug",4
same,morphological cytotoxicity grade,"[5]; 5 min + 72 hrs, 0.1 ug",0
same,morphological cytotoxicity grade,"[5]; 5 min + 72 hrs, 1 ug",1
same,morphological cytotoxicity grade,"[5]; 5 min + 72 hrs, 10 ug",4.5
same,morphological cytotoxicity grade,"[5]; 5 min + 96 hrs, 0.1 ug",0
same,morphological cytotoxicity grade,"[5]; 5 min + 96 hrs, 1 ug",1
same,morphological cytotoxicity grade,"[5]; 5 min + 96 hrs, 10 ug",5
same,morphological cytotoxicity grade,"[5]; 5 min + 120 hrs, 0.1 ug",0
same,morphological cytotoxicity grade,"[5]; 5 min + 120 hrs, 1 ug",1
same,morphological cytotoxicity grade,"[5]; 5 min + 120 hrs, 10 ug",5
same,morphological cytotoxicity grade,"[5]; 24 hrs + 24 hrs, 0.01 ug",0
same,morphological cytotoxicity grade,"[5]; 24 hrs + 24 hrs, 0.1 ug",0.5
same,morphological cytotoxicity grade,"[5]; 24 hrs + 24 hrs, 1 ug",3
same,morphological cytotoxicity grade,"[5]; 24 hrs + 48 hrs, 0.01 ug",0
same,morphological cytotoxicity grade,"[5]; 24 hrs + 48 hrs, 0.1 ug",1
same,morphological cytotoxicity grade,"[5]; 24 hrs + 48 hrs, 1 ug",4
same,morphological cytotoxicity grade,"[5]; 24 hrs + 72 hrs, 0.01 ug",0
same,morphological cytotoxicity grade,"[5]; 24 hrs + 72 hrs, 0.1 ug",0.5
same,morphological cytotoxicity grade,"[5]; 24 hrs + 72 hrs, 1 ug",4
same,morphological cytotoxicity grade,"[5]; 24 hrs + 96 hrs, 0.01 ug",0
same,morphological cytotoxicity grade,"[5]; 24 hrs + 96 hrs, 0.1 ug",0
same,morphological cytotoxicity grade,"[5]; 24 hrs + 96 hrs, 1 ug",4
same,morphological cytotoxicity grade,"[5]; 24 hrs + 120 hrs, 0.01 ug",0
same,morphological cytotoxicity grade,"[5]; 24 hrs + 120 hrs, 0.1 ug",0
same,morphological cytotoxicity grade,"[5]; 24 hrs + 120 hrs, 1 ug",4
same,morphological cytotoxicity grade,"[5]; Continuous 6 hrs, 0.01 ug",0
same,morphological cytotoxicity grade,"[5]; Continuous 6 hrs, 0.1 ug",0
same,morphological cytotoxicity grade,"[5]; Continuous 6 hrs, 1 ug",3
same,morphological cytotoxicity grade,"[5]; Continuous 24 hrs (first listing, r16), 0.01 ug",0
same,morphological cytotoxicity grade,"[5]; Continuous 24 hrs (first listing, r16), 0.1 ug",1
same,morphological cytotoxicity grade,"[5]; Continuous 24 hrs (first listing, r16), 1 ug",3
same,morphological cytotoxicity grade,"[5]; Continuous 24 hrs (second listing, r22), 0.01 ug",0
same,morphological cytotoxicity grade,"[5]; Continuous 24 hrs (second listing, r22), 0.1 ug",0
same,morphological cytotoxicity grade,"[5]; Continuous 24 hrs (second listing, r22), 1 ug",3
same,morphological cytotoxicity grade,"[5]; Continuous 48 hrs, 0.01 ug",0
same,morphological cytotoxicity grade,"[5]; Continuous 48 hrs, 0.1 ug",1
same,morphological cytotoxicity grade,"[5]; Continuous 48 hrs, 1 ug",3
same,morphological Toxicity Grade,[6]; Day 8,+4
same,morphological Toxicity Grade,[6]; Day 10,+4
